Assay results from patent EP0293146A1, “Benzofuro [3,2-c] quinoline compounds” (Kissei Pharmaceutical Co Ltd, priority 1987, dated 1988).

Columns and labels:
[1] = tested on: Femur was isolated from 10- to 11-day chick embryo; conditions: 100 µM
Experimental: Inhibitory effect of various compounds on bone resorption was tested according to the method described in "Advanced Tissue Cultures For In Vitro Assay And Production" (pages 111-114, edited by Isao Yamane & Hiroyoshi Endo, Published by SOFT SCIENCE, Inc. Tokyo).
Femur was isolated from 10- to 11-day chick embryo. After cleaned from adherent soft tissues, the preparation was precultivated in 1 ml of BGJb-HW2 culture medium containing benzofuro[3,2-c]quinoline derivatives of the present invention at 37° C for 24 hours using the roller-tube method. Tested compounds were dissolved in dimethylsulfoxide at a concentration of 0.1 M and the solution was diluted with the culture medium to make a final concentration of 10-^4 M of those compounds. In the case of control group, the same volume of dimethylsulfoxide was added.
On the next day, the precultivated femur was further cultivated for 2 hours at 37° C in 1 ml of fresh culture medium containing 1 µCi/ml of ^45CaCl2 to label the bone mineral with ^45Ca. Then, the cultivated bone was rinsed with a phosphate-buffered saline warmed at 37' C to remove ^45Ca adhered to the bone. ^45Ca-Labelled bone was again cultivated using the roller-tube method (10 revolutions/hr), and the radioactivity of ^45Ca in an aliquot of the culture medium was determined by liquid scintillation counter at a point of 12, 24, 48 and 72 hours, respectively. The culture medium was freshed at each determination of the radioactivity. After completion of the cultivation, the bone was immersed in 1 ml of 1 N HCI for 24 hours to elute all calcium in the bone, and the remaining radioactivity in the bone was determined.
From the obtained data, the rate of remaining radioactivity of the bone to the initial radioactivity of the bone was measured at each observation. Then the eluting rate of bone mineral by osteoclasts was obtained by linear-regression of decay curve for the rate of remaining radioactivity in the bone after 24 to 72 hours of the cultivation, and turnover rate of calcium in the bone mineral accumulated in the cultivated bone was estimated as biological half-life (T1/2).
The potency of the inhibition of presented compounds was calculated by the following equation using T1/2.

[2] = tested on: Femur was isolated from 9-day chick embryo; assay: Stimulatory effect on ossification (femur organ culture, calcium content); assay type: cell-based; conditions: 10-^5 M; cultivated for 6 days; eluted calcium versus paired control femur; mean value of 6 observations
Experimental: Stimulatory effect of various compounds on ossification was tested according to the method described in "Advanced Tissue Cultures For In Vitro Assay And Production" (pages 111-114, edited by Isao Yamane & Hiroyoshi Endo, Published by SOFT SCIENCE, Inc. Tokyo).
Femur was isolated from 9-day chick embryo. After cleaned from adherent soft tissues, one femur of a paired femur was used for a test of compound of the present invention, and the other femur was used as control group. One preparation was placed directly on the inner surface of a glass roller-tube, and 2 ml of BGJb-HW2 culture medium was added to each tube. Each preparation was cultivated at 37° C by the roller-tube method (10 revolutions/hr) for 6 days. During the cultivation, femur length was measured, and the culture medium was freshed every other day. Tested compounds were dissolved in dimethylsulfoxide at a concentration of 0.01 M and the solution was diluted by the culture medium to make a final concentraiton of 10-^5 M of those compounds. In the case of control group, the same volume of dimethylsulfoxide was added.
After completion of the cultivation, the bone was immersed in 1 N HCI for 24 hours to elute all calcium in the bone, and the eluted calcium was determined by chelating method using orthocresolphthalein.
The potency of the stimulatory effect on ossification of presented compounds was calculated by the following equation. [formula]
The results are shown in the following table as the mean value of 6 observations.

[3] = tested on: femur of rats loaded low calcium diets; assay: Effect on calcium and phosphorus contents in femur of rats loaded low calcium diets; assay type: in vivo, male Wistar rats; conditions: 300 mg/kg orally once a day for 2 weeks, mean±standard error of the mean of 10 observations
Experimental: Twenty male Wistar rats of 3 weeks age were divided into 2 groups. All animals were raised with low calcium diets. Test compound, 3,9-dihydroxy-5H-benzofuro [3,2-c]quinolin-6-one (compound 2) suspended in 0.5% sodium carboxymethyl cellulose solution (CMC) was orally administered to 1 group at a dose of 300 mg/kg once a day for 2 weeks. Another group recieved the same volume of CMC. After completion of the experiment, calcium and phosphorus contents in the femur were determined.
The results were shown in the following table as mean±standard error of the mean of 10 observations.

SMILES	Inhibitory potency on bone resorption [1]	further results
O=c1[nH]c2cc(O)ccc2c2oc3ccccc3c12 [Compound 1, 3-Hydroxy-5H-benzofuro[3,2-c]quinolin-6-one]	1.24	
O=c1[nH]c2cc(O)ccc2c2oc3cc(O)ccc3c12 [Compound 2, 3,9-Dihydroxy-5H-benzofuro[3,2-c]quinolin-6-one]	1.97	Stimulatory potency on ossification [2]: 1.11; Amount of calcium (mg/femur) [3]: 8.1±0.50 mg/femur; Amount of phosphorus (mg/femur) [3]: 5.1±0.26 mg/femur
O=c1[nH]c2cc(O)ccc2c2oc3ccc(O)cc3c12 [Compound 3, 3,8-Dihydroxy-5H-benzofuro[3,2-c]quinolin-6-one]	2.52	
CC(C)Oc1ccc2c(c1)[nH]c(=O)c1c3ccccc3oc21 [Compound 4, 3-Isopropoxy-5H-benzofuro[3,2-c]quinolin-6-one]	1.16	
O=c1[nH]c2cc(OCCCO)ccc2c2oc3ccccc3c12 [Compound 5, 3-(3-Hydroxypropoxy)-5H-benzofuro[3,2-c]quinolin-6-one]	1.26	
CCOC(=O)C(C)Oc1ccc2c(c1)[nH]c(=O)c1c3ccccc3oc21 (stereo not drawn) [Compound 6, 3-(1-Ethoxycarbonylethoxy)-5H-benzofuro[3,2-c]quinolin-6-one]	1.10	
CC(Oc1ccc2c(c1)[nH]c(=O)c1c3ccccc3oc21)C(=O)O (stereo not drawn) [Compound 7, 3-(1-Carboxyethoxy)-5H-benzofuro[3,2-c]quinolin-6-one]	1.10	
CC(C)Oc1ccc2c(c1)[nH]c(=O)c1c3ccc(OC(C)C)cc3oc21 [Compound 8, 3,9-Diisopropoxy-5H-benzofuro[3,2-c]quinolin-6-one]	1.24	
CC(C)Oc1ccc2c(c1)[nH]c(=O)c1c3ccc(O)cc3oc21 [Compound 9, 9-Hydroxy-3-isopropoxy-5H-benzofuro[3,2-c]quinolin-6-one]	2.89	Stimulatory potency on ossification [2]: 1.08
O=c1[nH]c2cc(OCCCO)ccc2c2oc3cc(OCCCO)ccc3c12 [Compound 10, 3,9-Bis(3-hydroxypropoxy)-5H-benzofuro[3,2-c]quinolin-6-one]	1.40	
O=c1[nH]c2cc(OCCCO)ccc2c2oc3cc(O)ccc3c12 [Compound 11, 9-Hydroxy-3-(3-hydroxypropoxy)-5H-benzofuro[3,2-c]quinolin-6-one]	2.89	Stimulatory potency on ossification [2]: 1.14
CCOC(=O)C(C)Oc1ccc2c(c1)[nH]c(=O)c1c3ccc(OC(C)C(=O)OCC)cc3oc21 (stereo not drawn) [Compound 12, 3,9-Bis(1-ethoxycarbonylethoxy)-5H-benzofuro[3,2-c]quinolin-6-one]	1.16	
COc1ccc2c(c1)[nH]c(=O)c1c3ccc(OC)cc3oc21 [Compound 13, 3,9-Dimethoxy-5H-benzofuro[3,2-c]quinolin-6-one]	1.04	
